Measurements published in patent publication US20110034420A1, “NOVEL CRYSTALLINE FORM B OF (2R)-(3-AMINO-2-FLUOROPROPYL)PHOSPHINIC ACID” (priority 2008, published 2011).

Assay: isoelectric point of the zwitterion
Format: physicochemical
Conditions: pH at which it may be crystallised
From the text: (2R)-(3-amino-2-fluoropropyl)phosphinic acid is a zwitterion, that may be crystallised at the isoelectric point, in this case approximately at a pH of 5.3.

NC[C@@H](F)C[PH](=O)O [(2R)-(3-amino-2-fluoropropyl)phosphinic acid]
isoelectric point (pH): ~5.3 pH
